In brackets after ≈: the same amount, converted by molar mass. Like-named read-outs stand apart in the source and are kept apart here. *1 amine or outer side, *2 acyl side, *3 side chain or, on linkers, in order; H or OH if unused. Where a SMILES comes first, the peptide text is derived from it. Bridges are numbered along the chain shown (N, C = ends). [ ]: non-standard residue; d: D form. The star is where a group is joined. X4 = C[C@@H](Oc1ccc([C@H](N[*:1])C(=O)[*:2])cc1)[C@](O)(/C=C/C(=O)[*:3])CNCCCCCCNC(=O)OC(C)(C)C; X1 = C[C@@H](Oc1ccc([C@H](N[*:1])C(=O)[*:2])cc1)[C@](O)(/C=C/C(=O)[*:3])CBr; X3 = C[C@@H](Oc1ccc([C@H](N[*:1])C(=O)[*:2])cc1)[C@](O)(/C=C/C(=O)[*:3])CO; Pentanoyl(2R-Me,3R-OH,4-Me) = CC(C)[C@@H](O)[C@@H](C)C(=O)*; d(aIle) = CC[C@H](C)[C@@H](N)C(=O)O; d(aThr) = C[C@@H](O)[C@@H](N)C(=O)O; NMeF = CN[C@@H](Cc1ccccc1)C(=O)O
Experiments:
Sal-resistant mutants [1] = details: Ebright et al., WO/2012/129173; cited from earlier work
Escherichia coli RNAP = Escherichia coli RNAP (Escherichia coli, UniProt P0A8T7+P0A8V2); assay: Fluorescence-detected RNAP assay, Escherichia coli RNAP; type: biochemical; details: for IC50: fluorescent-detected RNAP assays
Experimental: Fluorescence-detected RNAP assays with Escherichia coli RNAP were performed by a modification of the procedure of Kuhlman et al., 2004 [Kuhlman et al., Anal. Biochem. 324:183-190, 2004]. Reaction mixtures contained (20 μl): […] test compound, 75 nM Escherichia coli RNAP […] holoenzyme, 20 nM 384 by DNA fragment containing the bacteriophage T4 N25 promoter, 100 μM ATP, 100 μM GTP, 100 μM UTP, 100 μM CTP, 50 mM Tris-HCl, pH 8.0, 100 mM KCl, 10 mM MgCl2, 1 mM DTT, 10 μg/ml bovine serum albumin, and 5.5% glycerol. Reaction components other than DNA and NTPs were pre-incubated for 10 min at 37° C. Reactions were carried out by addition of DNA and incubation for 5 min at 37° C., followed by addition of NTPs and incubation for 60 min at 37° C. DNA was removed by addition of 1 μl 5 mM CaCl2 and 2 U DNaseI (Ambion, Inc.), followed by incubation for 90 min at 37° C. RNA was quantified by addition of 100 μl RiboGreen RNA Quantitation Reagent (Invitrogen, Inc.; 1:500 dilution in Tris-HCl, pH 8.0, 1 mM EDTA), followed by incubation for 10 min at 25° C., followed by measurement of fluorescence intensity [excitation wavelength=485 nm and emission wavelength=535 nm; QuantaMaster QM1 spectrofluorometer (PTI, Inc.)].
(§1) Half-maximal inhibitory concentrations (IC50s) were calculated by non-linear regression in SigmaPlot (SPSS, Inc.).

[2] = tested on: Escherichia coli D21f2toIC; assay: Antibacterial activity, broth microdilution, Escherichia coli D21f2tolC; type: cell-based; details: for MIC50: Escherichia coli, D21F2TOIC, read-out: MIC50 Escherichia coli D21f2toIC
Description: (§2) Antibacterial activity was quantified using broth microdilution [Clinical and Laboratory Standards Institute (CLSUNCCLS), Methods for Dilution Antimicrobial Susceptibility Tests for Bacteria That Grow Aerobically; Approved Standard, Eighth Edition. CLIS Document M07-A8 (CLIS, Wayne Pa.), 2009]. Assays with Enterobacter cloacae ATCC 13047, Pseudomonas aeruginosa ATCC10145, and Escherichia coli D21f2to1C, employed a starting cell density of 2-5×10^5 cfu/ml, Mueller Hinton II cation adjusted broth (BD Biosciences, Inc.), and an air atmosphere. Assays with Haemophilus influenzae ATCC49247 and Neisseria gonorrhoeae ATCC 19424 employed a starting cell density of 2-5×10^5 cfu/ml, Haemophilus Test Medium broth (Barry et al., 1993) and a 5% CO2/95% air atmosphere. MIC50 was defined as the minimal concentration resulting in ≧50% inhibition of bacterial growth.

[3] = tested on: Enterobacter cloacae ATCC 13047; assay: Antibacterial activity, broth microdilution, Enterobacter cloacae; type: cell-based; details: Enterobacter cloacae, ATCC13047; minimal concentration resulting in ≧50% inhibition of bacterial growth
Description: as §2

Vero E6 ATCC CRL1586 = assay: Cytotoxicity to mammalian cells in culture (CellTiter96); type: cell-based; details: mammalian cells in culture
Description: MICs for mammalian cells (Vero E6) in culture were quantified using CellTiter96 assay (Promega. Inc.; procedures as specified by the manufacturer). Screening data for SalA and SalB (compounds 1 and 2) and representative compounds of this invention (compounds 3-9) are presented in Tables 1-2: […]

human RNAP I/II/III = assay: Radiochemical assay with human RNAP I, II and III (HeLaScribe nuclear extract); type: biochemical
Experimental: Radiochemical assays with human RNAP I, II, and III were performed essentially as described [Sawadogo and Roeder, Cell 43:165-75, 1985]. Reaction mixtures contained (20 μl): 0-100 μM test compound, 8 U HeLaScribe Nuclear Extract (Promega, Inc.), 1 μg human placental DNA (Sigma-Aldrich), 400 μM ATP, 400 μM [α^32P]UTP (0.11 Bq/fmol), 400 μM CTP, 400 μM GTP, 50 mM Tris-HCl, pH 8.0, 7 mM HEPES-NaOH, 70 mM (NH4)2SO4, 50 mM KCl, 12 mM MgCl2, 5 mM DTT, 0.1 mM EDTA, 0.08 mM phenylmethylsulfonyl fluoride, and 16% glycerol. Reaction components other than DNA and NTPs were pre-incubated 10 min at 30° C., DNA was added and reaction mixtures were incubated 15 min at 30° C., NTPs were added and reaction mixtures were incubated 60 min at 30° C. Reaction mixtures were spotted on DE81 filter discs (Whatman, Inc.; pre-wetted with water) and incubated 1 min at room temperature. Filters were washed with 3×3 ml Na2HPO4, 2×3 ml water, and 3 ml ethanol, using a filter manifold (Hoefer, Inc.). Filters were placed in scintillation vials containing 10 ml Scintiverse BD Cocktail (Thermo Fisher, Inc.), and radioactivity was quantified by scintillation counting (LS6500; Beckman-Coulter, Inc.).
as §1

Sal-resistant mutants [4] = assay: Cross-resistance of Sal-resistant mutants to other RNAP inhibitors; type: cell-based; details: disclosed herein

Sequence of Escherichia coli RNAP (P0A800 whole entry, the tested form may be a part): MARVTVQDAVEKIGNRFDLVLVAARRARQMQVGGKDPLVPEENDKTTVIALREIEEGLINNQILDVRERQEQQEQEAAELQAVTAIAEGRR
Sequence of Escherichia coli RNAP (P00579 whole entry, further chain, the tested form may be a part): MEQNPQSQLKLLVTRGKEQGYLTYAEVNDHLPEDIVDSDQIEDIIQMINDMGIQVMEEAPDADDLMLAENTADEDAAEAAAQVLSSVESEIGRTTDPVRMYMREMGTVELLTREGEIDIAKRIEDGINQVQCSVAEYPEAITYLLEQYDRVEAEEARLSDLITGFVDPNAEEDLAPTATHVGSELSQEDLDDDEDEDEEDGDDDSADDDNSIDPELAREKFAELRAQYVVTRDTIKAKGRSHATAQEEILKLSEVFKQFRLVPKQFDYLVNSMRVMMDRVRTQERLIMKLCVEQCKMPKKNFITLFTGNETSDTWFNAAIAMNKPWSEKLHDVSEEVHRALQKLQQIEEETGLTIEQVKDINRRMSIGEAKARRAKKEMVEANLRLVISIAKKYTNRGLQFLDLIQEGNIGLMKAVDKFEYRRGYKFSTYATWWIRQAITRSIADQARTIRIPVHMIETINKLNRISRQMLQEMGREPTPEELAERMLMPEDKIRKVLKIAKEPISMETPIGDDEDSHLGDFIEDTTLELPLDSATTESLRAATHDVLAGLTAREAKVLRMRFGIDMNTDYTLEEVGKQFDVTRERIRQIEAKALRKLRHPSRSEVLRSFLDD
Sequence of Escherichia coli RNAP (P0A8V2 whole entry, the tested form may be a part): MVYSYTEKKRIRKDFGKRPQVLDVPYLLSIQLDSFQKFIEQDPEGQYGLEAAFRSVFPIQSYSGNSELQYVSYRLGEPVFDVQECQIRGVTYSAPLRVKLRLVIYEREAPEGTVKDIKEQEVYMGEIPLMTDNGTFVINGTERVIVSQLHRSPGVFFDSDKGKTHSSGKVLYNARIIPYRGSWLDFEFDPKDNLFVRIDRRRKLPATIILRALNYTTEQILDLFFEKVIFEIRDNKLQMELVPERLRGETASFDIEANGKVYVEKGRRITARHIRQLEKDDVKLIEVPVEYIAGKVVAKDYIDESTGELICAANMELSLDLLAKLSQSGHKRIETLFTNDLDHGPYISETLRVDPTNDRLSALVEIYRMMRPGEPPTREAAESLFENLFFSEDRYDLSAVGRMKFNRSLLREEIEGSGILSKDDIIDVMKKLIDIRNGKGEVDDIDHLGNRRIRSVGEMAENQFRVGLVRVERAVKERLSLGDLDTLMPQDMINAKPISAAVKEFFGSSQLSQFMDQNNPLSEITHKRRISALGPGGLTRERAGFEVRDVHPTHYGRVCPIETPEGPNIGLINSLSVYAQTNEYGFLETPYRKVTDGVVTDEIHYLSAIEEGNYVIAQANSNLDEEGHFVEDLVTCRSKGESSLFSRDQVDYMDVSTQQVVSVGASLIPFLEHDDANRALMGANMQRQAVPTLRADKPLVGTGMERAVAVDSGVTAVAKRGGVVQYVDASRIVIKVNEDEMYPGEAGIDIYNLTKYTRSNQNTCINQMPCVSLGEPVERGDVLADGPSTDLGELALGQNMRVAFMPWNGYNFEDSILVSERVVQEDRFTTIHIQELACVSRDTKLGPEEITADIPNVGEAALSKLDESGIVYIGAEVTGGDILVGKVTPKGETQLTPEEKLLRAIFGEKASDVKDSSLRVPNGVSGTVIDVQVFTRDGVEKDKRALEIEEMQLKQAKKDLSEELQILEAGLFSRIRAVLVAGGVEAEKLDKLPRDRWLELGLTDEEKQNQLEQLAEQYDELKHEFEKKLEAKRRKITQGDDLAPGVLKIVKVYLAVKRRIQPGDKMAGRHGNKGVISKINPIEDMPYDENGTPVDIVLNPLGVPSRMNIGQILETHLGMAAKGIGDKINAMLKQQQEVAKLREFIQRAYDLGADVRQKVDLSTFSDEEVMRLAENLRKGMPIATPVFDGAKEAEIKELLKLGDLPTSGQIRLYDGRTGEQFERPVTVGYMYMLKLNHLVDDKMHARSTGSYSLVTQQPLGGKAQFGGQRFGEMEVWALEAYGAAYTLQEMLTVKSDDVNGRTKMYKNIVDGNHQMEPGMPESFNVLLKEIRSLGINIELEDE
Sequence of Escherichia coli RNAP (P0A8T7 whole entry, the tested form may be a part): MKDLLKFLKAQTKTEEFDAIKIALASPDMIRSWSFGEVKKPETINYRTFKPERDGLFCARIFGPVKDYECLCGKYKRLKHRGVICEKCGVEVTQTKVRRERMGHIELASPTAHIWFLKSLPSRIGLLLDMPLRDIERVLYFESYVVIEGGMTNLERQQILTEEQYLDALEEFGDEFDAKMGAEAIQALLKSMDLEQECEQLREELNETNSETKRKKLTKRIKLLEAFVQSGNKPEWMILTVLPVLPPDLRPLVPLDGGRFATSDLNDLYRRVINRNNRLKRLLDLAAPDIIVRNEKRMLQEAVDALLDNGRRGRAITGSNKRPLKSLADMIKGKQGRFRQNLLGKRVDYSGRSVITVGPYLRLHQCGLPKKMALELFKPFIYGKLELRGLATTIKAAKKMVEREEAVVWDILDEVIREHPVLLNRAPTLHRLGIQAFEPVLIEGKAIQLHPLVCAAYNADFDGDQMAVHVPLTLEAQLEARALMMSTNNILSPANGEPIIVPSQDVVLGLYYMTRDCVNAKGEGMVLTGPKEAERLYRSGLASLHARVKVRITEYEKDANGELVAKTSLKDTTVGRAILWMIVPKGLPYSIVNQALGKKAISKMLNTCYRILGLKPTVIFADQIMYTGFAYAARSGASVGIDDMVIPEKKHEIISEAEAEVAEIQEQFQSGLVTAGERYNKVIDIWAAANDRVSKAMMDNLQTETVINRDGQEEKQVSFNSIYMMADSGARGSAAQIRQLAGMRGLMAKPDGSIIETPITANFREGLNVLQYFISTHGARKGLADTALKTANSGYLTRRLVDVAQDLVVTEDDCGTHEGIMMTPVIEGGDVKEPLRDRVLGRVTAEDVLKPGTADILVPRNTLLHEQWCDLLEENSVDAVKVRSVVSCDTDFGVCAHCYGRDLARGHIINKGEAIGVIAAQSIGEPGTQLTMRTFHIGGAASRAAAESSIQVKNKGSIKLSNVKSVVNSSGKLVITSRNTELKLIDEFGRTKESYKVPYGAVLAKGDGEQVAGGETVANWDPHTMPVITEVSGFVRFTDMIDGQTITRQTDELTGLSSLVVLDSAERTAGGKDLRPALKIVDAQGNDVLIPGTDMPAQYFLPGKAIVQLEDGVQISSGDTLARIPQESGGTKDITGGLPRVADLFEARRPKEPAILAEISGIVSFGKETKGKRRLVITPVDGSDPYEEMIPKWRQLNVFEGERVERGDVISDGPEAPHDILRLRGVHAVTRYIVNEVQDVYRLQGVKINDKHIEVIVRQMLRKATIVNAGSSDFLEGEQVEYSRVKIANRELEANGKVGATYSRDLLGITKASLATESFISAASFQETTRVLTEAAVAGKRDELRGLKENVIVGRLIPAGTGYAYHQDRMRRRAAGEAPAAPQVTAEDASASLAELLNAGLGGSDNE
Sequence of Escherichia coli RNAP (P0A7Z4 whole entry, further chain, the tested form may be a part): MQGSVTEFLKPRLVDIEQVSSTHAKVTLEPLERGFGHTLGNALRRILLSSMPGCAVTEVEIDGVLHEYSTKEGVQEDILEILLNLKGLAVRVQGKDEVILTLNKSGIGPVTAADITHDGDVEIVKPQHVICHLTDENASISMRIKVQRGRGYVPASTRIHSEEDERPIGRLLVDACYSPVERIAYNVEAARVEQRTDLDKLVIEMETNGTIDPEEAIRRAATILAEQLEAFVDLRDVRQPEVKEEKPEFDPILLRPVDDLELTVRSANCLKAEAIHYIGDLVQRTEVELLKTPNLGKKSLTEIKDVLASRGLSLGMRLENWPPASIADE

Compound	IC50 (Escherichia coli RNAP) [nM]	MIC50 [2] [µg/mL]	MIC50 [3] [µg/mL]	cross-resistance of Sal-resistant mutants to the compound (Sal-resistant mutants [4])	also measured
ONC(=Nc1ccccc1)c1cccc(C(F)(F)F)c1 [CBR703]	–	–	–	–	cross-resistance of Sal-resistant mutants to the compound (Sal-resistant mutants [1]): not cross-resistant
CC[C@H](C)[C@H]1NC(=O)[C@@H](NC(=O)[C@H](C)[C@H](O)C(C)C)[C@@H](C)OC(=O)[C@@H]2COC(=O)CNC(=O)/C=C/[C@](O)(CO)[C@@H](C)Oc3ccc(cc3)[C@H](NC1=O)C(=O)N(C)[C@@H](Cc1ccccc1)C(=O)N[C@H]([C@@H](C)O)C(=O)N2 [Sal-OH (4)] ({Pentanoyl(2R-Me,3R-OH,4-Me)}-T[d(aIle)][X3][NMeF][d(aThr)]S; ester 1-C; linker 3-6 via G)	2000	0.78 (≈ 0.751 µM)	25 (≈ 24.1 µM)	–	–
CC[C@H](C)[C@H]1NC(=O)[C@@H](NC(=O)[C@H](C)[C@H](O)C(C)C)[C@@H](C)OC(=O)[C@@H]2COC(=O)CNC(=O)/C=C/[C@](O)(CBr)[C@@H](C)Oc3ccc(cc3)[C@H](NC1=O)C(=O)N(C)[C@@H](Cc1ccccc1)C(=O)N[C@H]([C@@H](C)O)C(=O)N2 [Sal-Br (3)] ({Pentanoyl(2R-Me,3R-OH,4-Me)}-T[d(aIle)][X1][NMeF][d(aThr)]S; ester 1-C; linker 3-6 via G)	3000	0.049 (≈ 0.0445 µM)	1.56 (≈ 1.42 µM)	–	MIC50 Vero E6 ATCC CRL1586 (Vero E6 ATCC CRL1586): >100 µg/mL; RNAP-inhibitory activity (Escherichia coli RNAP; in words, refers to Table 1): essentially full; antibacterial activity ([2]; in words, refers to Table 2): essentially full; IC50 (human RNAP I/II/III): > 100000 nM
CC[C@H](C)[C@H]1NC(=O)[C@@H](NC(=O)[C@H](C)[C@H](O)C(C)C)[C@@H](C)OC(=O)[C@@H]2COC(=O)CNC(=O)/C=C/[C@](O)(CNCCCCCCNC(=O)OC(C)(C)C)[C@@H](C)Oc3ccc(cc3)[C@H](NC1=O)C(=O)N(C)[C@@H](Cc1ccccc1)C(=O)N[C@H]([C@@H](C)O)C(=O)N2 [Sal-NH(CH2)6NHBoc (9)] ({Pentanoyl(2R-Me,3R-OH,4-Me)}-T[d(aIle)][X4][NMeF][d(aThr)]S; ester 1-C; linker 3-6 via G)	1000	0.78 (≈ 0.631 µM)	25 (≈ 20.2 µM)	–	–
lipiarmycin	–	–	–	do not exhibit cross-resistance	–
CNC(=O)[C@@H](C)[C@H]1C(=O)/C(=C(O)/C=C/C(C)=C/[C@@H](C)[C@H]2O[C@@]3(C)O[C@H](C=C[C@@]34CO4)[C@@H]2C)C(=O)N1[C@@H]1CC[C@H](O)[C@H](C)O1 [streptolydigin]	–	–	–	do not exhibit cross-resistance	–
